Drawing on patent US20250134869A1, “Pyrrolo[2,3-d]pyrimidinyl, Pyrrolo[2,3-b]pyrazinyl and Pyrrolo[2,3-d]pyridinyl Acryla-mides” (Pfizer Inc, priority 2021, published 2025), this text covers IC50 for 29 compounds.

Each structure is given as a SMILES string. pIC50: −log10 of the molar value. Where two headings read alike, the source gives them in different places.

The target of the experiment is JAK3 enzyme (Homo sapiens (Human), UniProt P52333). Kind of experiment: JAK Caliper Enzyme Assay at 4 μM or 1 mM ATP. Type of experiment: biochemical.
JAK3 enzyme, sequence (P52333 whole entry, species assumed): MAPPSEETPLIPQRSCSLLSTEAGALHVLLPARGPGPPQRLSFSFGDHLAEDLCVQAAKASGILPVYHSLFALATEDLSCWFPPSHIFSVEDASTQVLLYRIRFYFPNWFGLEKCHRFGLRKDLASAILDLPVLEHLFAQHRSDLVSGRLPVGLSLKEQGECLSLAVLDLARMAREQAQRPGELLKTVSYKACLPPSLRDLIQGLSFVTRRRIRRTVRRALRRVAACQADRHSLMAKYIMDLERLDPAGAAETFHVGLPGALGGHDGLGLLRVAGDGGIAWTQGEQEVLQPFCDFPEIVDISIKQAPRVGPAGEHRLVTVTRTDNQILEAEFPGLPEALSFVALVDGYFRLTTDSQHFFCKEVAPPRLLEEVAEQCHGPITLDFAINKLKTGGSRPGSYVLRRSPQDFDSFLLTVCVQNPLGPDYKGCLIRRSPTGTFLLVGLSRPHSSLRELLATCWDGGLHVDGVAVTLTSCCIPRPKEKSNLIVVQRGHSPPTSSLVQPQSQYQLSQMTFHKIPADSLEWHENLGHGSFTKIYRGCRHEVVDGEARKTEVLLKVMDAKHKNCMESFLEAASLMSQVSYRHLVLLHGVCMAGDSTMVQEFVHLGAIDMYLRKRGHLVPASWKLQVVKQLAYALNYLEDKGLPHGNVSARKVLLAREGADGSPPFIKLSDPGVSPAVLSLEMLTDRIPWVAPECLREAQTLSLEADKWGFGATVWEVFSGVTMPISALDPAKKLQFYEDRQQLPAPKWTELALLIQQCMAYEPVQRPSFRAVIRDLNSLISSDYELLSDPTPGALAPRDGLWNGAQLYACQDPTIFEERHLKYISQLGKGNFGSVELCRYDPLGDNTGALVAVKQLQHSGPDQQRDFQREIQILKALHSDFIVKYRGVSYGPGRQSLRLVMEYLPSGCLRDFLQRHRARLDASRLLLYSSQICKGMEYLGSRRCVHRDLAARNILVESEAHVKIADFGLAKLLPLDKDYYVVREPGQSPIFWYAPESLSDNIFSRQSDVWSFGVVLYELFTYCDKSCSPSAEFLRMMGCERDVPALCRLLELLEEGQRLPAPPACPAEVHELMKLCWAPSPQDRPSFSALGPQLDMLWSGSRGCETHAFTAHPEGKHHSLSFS
The mark [1] stands for this setting: read-out: JAK3 (4 μM ATP) IC50, 4 μM ATP.
The mark [2] stands for this setting: read-out: JAK3 (1 mM ATP) IC50, 1 mM ATP.

Consider `C=CC(=O)N1CCC(Nc2cnc3[nH]cc(C(=O)N[C@@H]4CCC[C@H]4F)c3n2)CC1` [Example 237, 2-[(1-acryloylpiperidin-4-yl)amino]-N-[(1R,2R)-2-fluorocyclopentyl]-5H-pyrrolo[2,3-b]pyrazine-7-carboxamide], for which the pIC50 is, setting by setting: under setting [1], 9.70; under setting [2], 8.11.
The like results for `C=CC(=O)N1CCC(Nc2cnc3[nH]cc(C(=O)NCC4CC(F)(F)C4)c3n2)CC1` [Example 238, 2-[(1-acryloylpiperidin-4-yl)amino]-N-[(3,3-difluorocyclobutyl)methyl]-5H-pyrrolo[2,3-b]pyrazine-7-carboxamide] were, in that order, 9.70 and 8.03.
The like results for `C=CC(=O)N1CCC(Nc2cnc3[nH]cc(C(=O)NCCCC(F)(F)F)c3n2)CC1` [Example 240, 2-[(1-acryloylpiperidin-4-yl)amino]-N-(4,4,4-trifluorobutyl)-5H-pyrrolo[2,3-b]pyrazine-7-carboxamide] were, in that order, 10.00 and 8.04.
On to `C=CC(=O)N1CCC(Nc2cnc3[nH]cc(C(=O)NC[C@H](C)CC(F)(F)F)c3n2)CC1` [Example 241, 2-[(1-acryloylpiperidin-4-yl)amino]-N-[(2R)-4,4,4-trifluoro-2-methylbutyl]-5H-pyrrolo[2,3-b]pyrazine-7-carboxamide], for which the pIC50 is, setting by setting: under setting [1], 9.70; under setting [2], 8.14.
The like results for `C=CC(=O)N1CCC(Nc2cnc3[nH]cc(C(=O)NCCCC#N)c3n2)CC1` [Example 242, 2-[(1-acryloylpiperidin-4-yl)amino]-N-(3-cyanopropyl)-5H-pyrrolo[2,3-b]pyrazine-7-carboxamide] were, in that order, 10.00 and 7.97.
The like results for `C=CC(=O)N1CCC(Nc2cnc3[nH]cc(C(=O)NC4CC(F)C4)c3n2)CC1` (stereo not shown) [Example 243, 2-[(1-acryloylpiperidin-4-yl)amino]-N-(3-fluorocyclobutyl)-5H-pyrrolo[2,3-b]pyrazine-7-carboxamide] were, in that order, over 10.00 and 8.05.
The like results for `C=CC(=O)N1CCC(Nc2cnc3[nH]cc(C(=O)N[C@H]4CC[C@@H](F)C4)c3n2)CC1` [Example 244, 2-[(1-acryloylpiperidin-4-yl)amino]-N-[(1S,3R)-3-fluorocyclopentyl]-5H-pyrrolo[2,3-b]pyrazine-7-carboxamide] were, in that order, 9.70 and 8.14.
In the case of `C=CC(=O)N1CCC(Nc2cnc3[nH]cc(C(=O)NC4CC(F)(F)C4)c3n2)CC1` [Example 245, 2-[(1-acryloylpiperidin-4-yl)amino]-N-(3,3-difluorocyclobutyl)-5H-pyrrolo[2,3-b]pyrazine-7-carboxamide], the negative logarithm of the IC50 (pIC50) is 9.70 under setting [1] and 7.75 under setting [2].
Turning to `C=CC(=O)N1CCC(Nc2cnc3[nH]cc(C(=O)NCCC(F)(F)F)c3n2)CC1` [Example 246, 2-[(1-acryloylpiperidin-4-yl)amino]-N-(3,3,3-trifluoropropyl)-5H-pyrrolo[2,3-b]pyrazine-7-carboxamide], the pIC50 was 9.52 under setting [1] and 8.19 under setting [2].
The like results for `C=CC(=O)N1CCC(Nc2cnc3[nH]cc(C(=O)N[C@H]4CC[C@H](F)C4)c3n2)CC1` [Example 247, 2-[(1-acryloylpiperidin-4-yl)amino]-N-[(1S,3S)-3-fluorocyclopentyl]-5H-pyrrolo[2,3-b]pyrazine-7-carboxamide] were, in that order, 9.70 and 8.09.
The like results for `C=CC(=O)N1CCC(Nc2cnc3[nH]cc(C(=O)N[C@H](C(C)C)[C@@H](O)C(F)(F)F)c3n2)CC1` [Example 248, 2-[(1-acryloylpiperidin-4-yl)amino]-N-[(2R,3R)-1,1,1-trifluoro-2-hydroxy-4-methylpentan-3-yl]-5H-pyrrolo[2,3-b]pyrazine-7-carboxamide] were, in that order, 9.40 and 7.40.
For the compound `C=CC(=O)N1CCC(Nc2cnc3[nH]cc(C(=O)NCC4(O)CCCC(F)(F)C4)c3n2)CC1` (stereo not shown) [Example 249, 2-[(1-acryloylpiperidin-4-yl)amino]-N-[(3,3-difluoro-1-hydroxycyclohexyl)methyl]-5H-pyrrolo[2,3-b]pyrazine-7-carboxamide], the pIC50 by setting is: under setting [1], 9.22; under setting [2], 7.33.
The like results for `C=CC(=O)N1CCC(Nc2cnc3[nH]cc(C(=O)N[C@@H]4CCC[C@@H]4F)c3n2)CC1` [Example 251, 2-[(1-acryloylpiperidin-4-yl)amino]-N-[(1R,2S)-2-fluorocyclopentyl]-5H-pyrrolo[2,3-b]pyrazine-7-carboxamide] were, in that order, 9.70 and 8.09.
The like results for `C=CC(=O)N1CCC(Nc2cnc3[nH]cc(C(=O)N[C@@H](C(C)C)[C@H](O)C(F)(F)F)c3n2)CC1` [Example 252, 2-[(1-acryloylpiperidin-4-yl)amino]-N-[(2S,3S)-1,1,1-trifluoro-2-hydroxy-4-methylpentan-3-yl]-5H-pyrrolo[2,3-b]pyrazine-7-carboxamide] were, in that order, 9.30 and 7.43.
The like results for `C=CC(=O)N1CCC(Nc2cnc3[nH]cc(C(=O)NCC4(O)CCC(F)(F)CC4)c3n2)CC1` [Example 252b, 2-[(1-acryloylpiperidin-4-yl)amino]-N-[(4,4-difluoro-1-hydroxycyclohexyl)methyl]-5H-pyrrolo[2,3-b]pyrazine-7-carboxamide] were, in that order, 9.30 and 7.39.
In the case of `C=CC(=O)N1CCC(Nc2cnc3[nH]cc(C(=O)NCC(C)CC(F)(F)F)c3n2)CC1` (stereo not shown) [Example 253, 2-[(1-acryloylpiperidin-4-yl)amino]-N-(4,4,4-trifluoro-2-methylbutyl)-5H-pyrrolo[2,3-b]pyrazine-7-carboxamide], the pIC50 was 9.70 under setting [1] and 8.16 under setting [2].
As to `C=CC(=O)N1CCC(Nc2cnc3[nH]cc(C(=O)N[C@@H]4CC[C@H](F)C4)c3n2)CC1` [Example 255, 2-[(1-acryloylpiperidin-4-yl)amino]-N-[(1R,3S)-3-fluorocyclopentyl]-5H-pyrrolo[2,3-b]pyrazine-7-carboxamide], the pIC50 by setting is: under setting [1], 9.52; under setting [2], 8.01.
The like results for `C=CC(=O)N1CCC(Nc2cnc3[nH]cc(C(=O)NC4CCCCC4(F)F)c3n2)CC1` (stereo not shown) [Example 256, 2-[(1-acryloylpiperidin-4-yl)amino]-N-(2,2-difluorocyclohexyl)-5H-pyrrolo[2,3-b]pyrazine-7-carboxamide] were, in that order, 9.70 and 8.10.
The like results for `C=CC(=O)N1CCC(Nc2cnc3[nH]cc(C(=O)NC4CCC(F)(F)C4)c3n2)CC1` (stereo not shown) [Example 259, 2-[(1-acryloylpiperidin-4-yl)amino]-N-(3,3-difluorocyclopentyl)-5H-pyrrolo[2,3-b]pyrazine-7-carboxamide] were, in that order, 9.70 and 7.95.
Take `C=CC(=O)N1CCC(Nc2cnc3[nH]cc(C(=O)NCCC#N)c3n2)CC1` [Example 261, 2-[(1-acryloylpiperidin-4-yl)amino]-N-(2-cyanoethyl)-5H-pyrrolo[2,3-b]pyrazine-7-carboxamide]: the pIC50 under setting [1] is 9.70 and the negative logarithm of the IC50 (pIC50) under setting [2] is 8.13.
The like results for `C=CC(=O)N1CCC(Nc2cnc3[nH]cc(C(=O)N[C@H](CC)CC#N)c3n2)CC1` [Example 263, 2-[(1-acryloylpiperidin-4-yl)amino]-N-[(2R)-1-cyanobutan-2-yl]-5H-pyrrolo[2,3-b]pyrazine-7-carboxamide] were, in that order, 9.70 and 8.06.
In the case of `C=CC(=O)N1CCC(Nc2cnc3[nH]cc(C(=O)NC(C)(C)C)c3n2)CC1` [Example 266, 2-[(1-acryloylpiperidin-4-yl)amino]-N-tert-butyl-5H-pyrrolo[2,3-b]pyrazine-7-carboxamide], the pIC50 under setting [1] was 9.52 and the pIC50 under setting [2] was 7.87.
For the compound `C=CC(=O)N1CCC(Nc2cnc3[nH]cc(C(=O)N[C@@H](C)CCC)c3n2)CC1` [Example 267, 2-[(1-acryloylpiperidin-4-yl)amino]-N-[(2S)-pentan-2-yl]-5H-pyrrolo[2,3-b]pyrazine-7-carboxamide], the pIC50 under setting [1] was 9.52 and the negative logarithm of the IC50 (pIC50) under setting [2] is 8.05.
The like results for `C=CC(=O)N1CCC(Nc2cnc3[nH]cc(C(=O)N[C@H](C)COC)c3n2)CC1` [Example 268, 2-[(1-acryloylpiperidin-4-yl)amino]-N-[(2R)-1-methoxypropan-2-yl]-5H-pyrrolo[2,3-b]pyrazine-7-carboxamide] were, in that order, 9.52 and 8.10.
As to `C=CC(=O)N1CCC(Nc2cnc3[nH]cc(C(=O)NCCCC)c3n2)CC1` [Example 269, 2-[(1-acryloylpiperidin-4-yl)amino]-N-butyl-5H-pyrrolo[2,3-b]pyrazine-7-carboxamide], the pIC50 is 9.70 under setting [1] and 8.14 under setting [2].
For the compound `C=CC(=O)N1CCC(Nc2cnc3[nH]cc(C(=O)NCC4CCCC4)c3n2)CC1` [Example 270, 2-[(1-acryloylpiperidin-4-yl)amino]-N-(cyclopentylmethyl)-5H-pyrrolo[2,3-b]pyrazine-7-carboxamide], the pIC50 runs as follows: under setting [1], over 10.00; under setting [2], 8.07.
The like results for `C=CC(=O)N1CCC(Nc2cnc3[nH]cc(C(=O)NCC(C)(C)C)c3n2)CC1` [Example 271, 2-[(1-acryloylpiperidin-4-yl)amino]-N-(2,2-dimethylpropyl)-5H-pyrrolo[2,3-b]pyrazine-7-carboxamide] were, in that order, 9.40 and 7.83.
The like results for `C=CC(=O)N1CCC(Nc2cnc3[nH]cc(C(=O)NCC(C)C)c3n2)CC1` [Example 272, 2-[(1-acryloylpiperidin-4-yl)amino]-N-(2-methylpropyl)-5H-pyrrolo[2,3-b]pyrazine-7-carboxamide] were, in that order, 9.70 and 8.06.
On to `C=CC(=O)N1CCC(Nc2cnc3[nH]cc(C(=O)NCC(F)(F)F)c3n2)CC1` [Example 273, 2-[(1-acryloylpiperidin-4-yl)amino]-N-(2,2,2-trifluoroethyl)-5H-pyrrolo[2,3-b]pyrazine-7-carboxamide], for which the pIC50 was 9.40 under setting [1] and 7.94 under setting [2].

The term pIC50 denotes −log10 of the IC50, conventionally taken in molar units.
